Assay results from patent US20050026836A1, “Composition for the treatment of damaged tissue” (priority 1999, published 2005).

Key:
[1] = target: T1, MMP-13 (Homo sapiens, UniProt P45452); assay: MMP-13 fluorogenic inhibition assay; format: biochemical; details: estimated from IC50; read-out: Calculated Ki(nM) MMP-13
T1 construct: made in house
Experimental: (§1) All enzymes were pre-activated at 37° C. with aminophenylmercuric acetate (APMA) or trypsin before being made up to the final concentrations used in the assay.
(§2) For MMP-1, the assay buffer used was 50 mM Tris, 200 mM NaCl, 5 mM CaCl2, 20 μM ZnCl2, 0.05% (w/v) Brij 35, pH 7.5. […] For MMP-13, the assay buffer used was 50 mM Tris, pH 7.5, 200 mM NaCl, 5 mM CaCl2, […] and 0.02% (w/v) Brij 35.
Assays were carried out in 96-well microfluor plates. All incubations were performed at 37° C. and fluorescence readings determined at 360 nm γex and 450 nm γem.
For the assay, the fluorescence values at time zero were subtracted from those determined at 15 or 20 minutes. The % response was then calculated by comparison to positive controls (enzyme, buffer and substrate in the absence of inhibitor). IC50 values were then determined using FitCurve (Excel Tessella Stats add-in).
(§3) These were estimated using the following equation: IC50=(Ki*[…], where S is the substrate concentration and Km the Michaelis-Menton coefficient. Serine Protease Assays

[2] = target: T2, catalytic domain human MMP-1 (Homo sapiens, UniProt P03956); assay: MMP-1 fluorogenic inhibition assay; format: biochemical; details: * limited by compound solubility; read-out: Calculated Ki(nM) MMP-1
T2 construct: made in house
T2 sequence (P03956 100-269 limits assumed): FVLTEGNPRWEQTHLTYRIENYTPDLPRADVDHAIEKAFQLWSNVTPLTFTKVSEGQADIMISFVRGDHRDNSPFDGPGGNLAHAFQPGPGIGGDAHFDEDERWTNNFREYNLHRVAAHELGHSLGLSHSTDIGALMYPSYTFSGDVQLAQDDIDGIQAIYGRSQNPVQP
Experimental: as §1, §2
The incubation was performed at 37° C. for 60 minutes.
(§4) For MMP-2, the final assay concentrations of inhibitors used were 1000, 800, 600, 400, 200 and 100 nM. For MMP-3, the final assay concentrations of inhibitors used were 5, 4, 3, 2, 1 and 0.5 nM. For MMP-9 and MMP-14, the final assay concentrations of inhibitors used were 5, 4, 3, 2, 1 and 0.5 μM.
(§5) All assays were carried out in a black 96-well plate with a final volume of 100 μl in each well. Inhibitors were dissolved in dimethylsulphoxide (DMSO) to 1 mM. Solutions were then serially diluted in buffer to give the final concentrations shown.
as §3

[3] = target: T3, catalytic domain of human MMP-3 (Homo sapiens, UniProt P08254); assay: MMP-3 fluorogenic inhibition assay; format: biochemical
T3 construct: made in house
T3 sequence (P08254 100-272 limits assumed): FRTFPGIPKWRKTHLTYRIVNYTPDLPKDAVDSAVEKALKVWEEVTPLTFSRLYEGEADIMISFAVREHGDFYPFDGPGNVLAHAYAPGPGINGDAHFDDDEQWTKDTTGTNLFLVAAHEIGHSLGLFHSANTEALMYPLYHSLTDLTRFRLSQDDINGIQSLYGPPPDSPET
Experimental: as §1, §2
(§6) MMP-2, MMP-3 and MMP-9 inhibition was assayed by incubating activated catalytic domain of human MMP-2, MMP-3 and MMP-9 at 1 nM in assay buffer with 5 μM substrate Mca-Arg-Pro-Lys-Pro-Tyr-Ala-Nva-Trp-Met-Lys(Dnp)-NH2, and six different concentrations of inhibitor. The incubation was performed at 37° C. for 60 minutes.
as §4, §5, §3

[4] = target: catalytic domain of human MMP-2 (Homo sapiens, UniProt P08253); assay: MMP-2 fluorogenic inhibition assay; format: biochemical; details: read-out: Calculated Ki(nM) MMP-2
catalytic domain of human MMP-2, sequence (P08253 with tags, fused parts or gaps DEL222-396 limits assumed): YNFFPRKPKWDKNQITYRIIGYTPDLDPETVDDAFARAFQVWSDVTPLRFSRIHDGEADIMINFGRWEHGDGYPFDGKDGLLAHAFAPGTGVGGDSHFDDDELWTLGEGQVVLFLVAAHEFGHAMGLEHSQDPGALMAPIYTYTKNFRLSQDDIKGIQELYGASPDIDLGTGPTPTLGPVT
Experimental: as §1, §2, §6, §4
All assays were carried out in a black 96-well plate with a final volume of 100 μl in each well. Inhibitors were dissolved in dimethylsulphoxide (DMSO) to 1 mM. Solutions were then serially diluted in buffer to give the final concentrations shown. […]

[5] = target: T4, catalytic domain of human MMP-9 (Homo sapiens, UniProt P14780); assay: MMP-9 fluorogenic inhibition assay; format: biochemical; details: read-out: Calculated Ki(nM) MMP-9
T4 sequence (P14780 with tags, fused parts or gaps DEL216-390 limits assumed): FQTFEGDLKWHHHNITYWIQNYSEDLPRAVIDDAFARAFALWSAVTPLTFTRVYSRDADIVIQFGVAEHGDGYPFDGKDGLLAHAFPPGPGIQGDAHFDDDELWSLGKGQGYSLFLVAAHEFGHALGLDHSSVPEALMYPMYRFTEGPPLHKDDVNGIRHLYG
Experimental: (§7) All enzymes were pre-activated at 37° C. with aminophenylmercuric acetate (APMA) or trypsin before being made up to the final concentrations used in the assay. MMP-1 (30 nM) was activated with 0.93 mM APMA for 20 minutes, MMP-2 (30 nM) was activated with 1.32 mM APMA for 1 hour, MMP-3 (1010 nM) was activated with 1.81 mM APMA for 3 hours or heat activated at 55° C. for three hours, MMP-9 (100 nM) was activated with 2 mM APMA for 2 hours, human MMP-13 (100 nM) was activated with 2 mM APMA for 2 hours, and MMP-14 (900 nM) was activated with 0.9 ng/ml trypsin for 25 minutes, followed by the addition of 4.5 ng/ml trypsin inhibitor.
as §2, with “35. For MMP-14, the assay buffer used was 50 mM Tris, 100 mM NaCl, 10 mM CaCl2, 0.25% (w/v) Brij 35, pH 7.5.” for “35.”
as §6
as §4, with “The final assay concentrations of inhibitors used in the MMP-1 assays to determine Ki were 50, 40, 30, 20, 10 and 5 μM. For MMP-2,” for “For MMP-2,”
(§8) All assays were carried out in a black 96-well plate with a final volume of 100 μl in each well. […] For MMP-2, MMP-3, MMP-9 and MMP-14, fluorescence was read every 2 minutes at […] and 393 nm γem for 1 hour using a Fluorostar fluorimeter (BMG) with BIOLISE software. For MMP-1 assays, the filters used were 355 nm γex and 440 nm γem; fluorescence was read every 2 minutes for 1 hour. […]

[6] = target: T5, MMP-3 (Homo sapiens, UniProt P08254); assay: Reduction of MMP-3-catalysed degradation of KGF-2; format: biochemical; details: MMP-3 / KGF-2, read-out: Percentage inhibition of proteolysis
T5 construct: made in house
T5 sequence (P08254 100-272 limits assumed): as the sequence (P08254 100-272 limits assumed) above

[7] = target: T6, catalytic domain human MMP-14 (Homo sapiens, UniProt P50281); assay: MMP-14 fluorogenic inhibition assay; format: biochemical; details: read-out: Calculated Ki(nM) MMP-14
T6 construct: made in house
Experimental: as §7
as §2, with “35. For MMP-14, the assay buffer used was 50 mM Tris, 100 mM NaCl, 10 mM CaCl2, 0.25% (w/v) Brij 35, pH 7.5.” for “35.”
MMP-14 inhibition was assayed by incubating activated catalytic domain human MMP-14 at 1 nM in assay buffer with 10 μM Mca-Pro-Leu-Gly-Leu-Dpa-Ala-Arg-NH2 and six concentrations of inhibitor. The incubation was performed at 37° C. for 60 minutes.
as §4, with “The final assay concentrations of inhibitors used in the MMP-1 assays to determine Ki were 50, 40, 30, 20, 10 and 5 μM. For MMP-2,” for “For MMP-2,”
as §8, with “well. Inhibitors were dissolved in dimethylsulphoxide (DMSO) to 1 mM.” for “well.”

[8] = target: T5, MMP-3; assay: Proteolytic digestion of growth factors by purified MMP-3; format: biochemical; set-up: key: significant (represented as ‘+’); a score from significant (represented as ‘+’) to major (represented as ‘+++’); major (represented as ‘+++’); Reduction of parent growth factor not accompanied by the appearance of degradation products is represented by (+); details: purified MMP-3, 37° C., Western blot
Experimental: (§9) The extent of proteolysis of the growth factors was assayed by incubating TGF-β2, VEGF, PDGF-BB and KGF-2 with the proteases uPA, plasmin, MMP-3 and MMP-13 in assay buffer (either uPA/plasmin buffer, 50 mM tris-HCl, pH 7.4 or MMP assay buffer, 100 mM Tris, 10 mM NaCl, 10 mM CaCl2, 0.05% (w/v) Brij 35, pH 7.5). […] The growth factors were added to the incubation mixture at a final concentration of 7.9 mg/ml, unless otherwise stated.
(§10) The effects of uPA were determined by incubation at a typical final concentration of 25 μg/ml (1500 U/ml) with each growth factor. The effects of plasmin were determined at a typical final concentration of 0.1 mg/ml by incubation with the individual growth factors in assay buffer. MMP-3 and -13 were incubated at a typical final concentration of 10 nM with the growth factors in assay buffer. […] All incubations were performed in siliconised tubes (Sigma Aldrich, UK).
(§11) All assays were carried out at 37° C. and enzymes were pre-incubated for 15 minutes with or without inhibitor as appropriate, prior to addition of growth factors. After the addition of growth factor, the incubation mixtures were divided into aliquots in siliconised tubes for each time point used. Incubations were carried out over a time course typically of 24 hours, unless otherwise stated. […]

[9] = target: T7, Plasmin (Homo sapiens, UniProt P00747); assay: Proteolytic digestion of growth factors by purified plasmin; format: biochemical; set-up: key: significant (represented as ‘+’); a score from significant (represented as ‘+’) to major (represented as ‘+++’); major (represented as ‘+++’); Reduction of parent growth factor not accompanied by the appearance of degradation products is represented by (+); details: 37° C., Western blot
T7 construct: Human plasmin, 2 mg/vial (Quadratech, 810665) was reconstituted to 1 mg/ml in buffer; purchased Quadratech 810665
T7 sequence (P00747 581-810 limits assumed): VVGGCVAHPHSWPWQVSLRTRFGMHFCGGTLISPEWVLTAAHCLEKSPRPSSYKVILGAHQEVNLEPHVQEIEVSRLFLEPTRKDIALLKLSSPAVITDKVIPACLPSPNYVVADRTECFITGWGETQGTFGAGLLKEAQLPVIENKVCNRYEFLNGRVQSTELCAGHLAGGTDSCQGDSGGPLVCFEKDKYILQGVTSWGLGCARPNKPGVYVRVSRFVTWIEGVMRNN
T7 sequence (P00747 97-580 partner limits assumed): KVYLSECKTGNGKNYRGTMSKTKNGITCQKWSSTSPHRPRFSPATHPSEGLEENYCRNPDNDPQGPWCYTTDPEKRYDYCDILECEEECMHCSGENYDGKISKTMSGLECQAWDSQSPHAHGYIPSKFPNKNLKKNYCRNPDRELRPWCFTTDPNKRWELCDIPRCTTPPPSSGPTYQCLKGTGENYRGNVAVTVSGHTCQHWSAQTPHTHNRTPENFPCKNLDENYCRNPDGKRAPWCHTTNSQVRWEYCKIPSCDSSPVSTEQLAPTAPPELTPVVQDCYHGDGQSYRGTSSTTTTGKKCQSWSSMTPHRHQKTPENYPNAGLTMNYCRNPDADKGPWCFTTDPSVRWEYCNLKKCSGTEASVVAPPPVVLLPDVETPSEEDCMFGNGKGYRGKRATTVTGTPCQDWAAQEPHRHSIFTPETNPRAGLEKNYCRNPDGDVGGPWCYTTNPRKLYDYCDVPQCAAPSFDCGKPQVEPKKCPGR
Experimental: as §9, §10, §11

[10] = target: uPA (Homo sapiens, UniProt P00749); assay: Proteolytic digestion of growth factors by purified uPA; format: biochemical; set-up: High molecular weight human urokinase from urine, 3000 IU/vial (Calbiochem, 672081); purchased Calbiochem 672081; host or cells: human urine; key: significant (represented as ‘+’); a score from significant (represented as ‘+’) to major (represented as ‘+++’); major (represented as ‘+++’); Reduction of parent growth factor not accompanied by the appearance of degradation products is represented by (+); details: 37° C., Western blot
Experimental: as §9, §10, §11

[11] = target: T1, MMP-13; assay: Proteolytic digestion of growth factors by purified MMP-13; format: biochemical; set-up: key: significant (represented as ‘+’); a score from significant (represented as ‘+’) to major (represented as ‘+++’); major (represented as ‘+++’); Reduction of parent growth factor not accompanied by the appearance of degradation products is represented by (+); details: purified MMP-13, 37° C., Western blot
Experimental: as §9, §10, §11

[12] = in vivo; cited from earlier work

Cc1cc(C2CCN(S(=O)(=O)C(C)(C)C(=O)NO)CC2)ccc1-c1cccc(OCCO)c1 [compound 9470]
Ki [1]: 0.95 nM | Ki [2]: 1780 nM | Selectivity among MMPs (in words) ([3]; from Ki values of Table 3 (MMP-1, -2, -3, -9, -13, -14)): selective dual inhibitor of MMP-3 and MMP-13 | Ki ([3]; read-out: Calculated Ki(nM) MMP-3): 1 nM | Ki [4]: 269 nM | Ki [5]: 406 nM | inhibition at 0.01 µM ([6]; inhibitor 0.01 μM): 24.5% | inhibition at 0.1 µM ([6]; inhibitor 0.1 μM): 64.5% | inhibition at 1 µM ([6]; inhibitor 1 μM): 72.2% | inhibition at 10 µM ([6]; inhibitor 10 μM): 91.1% | Ki [7]: 1710 nM

PDGF-BB: "human recombinant PDGF-BB" obtained from Sigma; growth factor
Extent of hydrolysis of growth factor by MMP-3 [8]: + | Extent of hydrolysis of growth factor by Plasmin [9]: +++ | Extent of hydrolysis of growth factor by uPA [10]: ++ | Extent of hydrolysis of growth factor by MMP-13 [11]: (+)

transforming growth factor β3 [TGFβ3]
half life after injection into venous ulcers [12]: approximately 30 minutes

TGF-β2: "Human recombinant TGF-β2 and KGF-2 were obtained from R&D Systems"; growth factor
Extent of hydrolysis of growth factor by MMP-3 [8]: (+) | Extent of hydrolysis of growth factor by Plasmin [9]: ++ | Extent of hydrolysis of growth factor by uPA [10]: + | Extent of hydrolysis of growth factor by MMP-13 [11]: +
